Tests used:
patients with COPD = assay: Pulmonary function tests (trough and peak FEV1), tetomilast with Advair Diskus 250/50, parallel group study (Example 2); format: in vivo, human; parameters: Estimated Treatment Effect, change from baseline in trough FEV1 (tetomilast versus placebo) / Estimated Treatment Effect in Baseline Mean trough FEV1, Day 7 predose (tetomilast versus placebo) / Estimated Treatment Effect, change from baseline in peak FEV1 (tetomilast versus placebo): unit not given here
Experimental: Pulmonary function tests were conducted throughout the study to monitor the subjects' respiratory status. Flow volume curves were collected via spirometry. Combivent® (Boehringer Ingleheim Pharmaceuticals, Inc., Ridgefield Conn.), which was used for short-acting rescues as needed throughout the studies described below, was withheld for 6 hours prior to any spirometric testing. Spirometry testing was performed at screening, baseline (Day 0), and at specific times during the treatment period. Each subject could have up to 5 spirometric readings at any study time point. Spirometric readings were performed using equipment from the central provider, Quantum Research, Inc. (Louisville, Colo.). All spirometry readings were recorded and sent to Quantum Research, Inc. for analysis
For the spirometric readings, the best effort was reported as follows. The highest acceptable forced expiratory volume in one second (FEV1) value was selected as the “best” of the given test session. If two or more FEV1 values were tied as highest, the sum of FEV1 and forced vital capacity (FVC) for those efforts was used. If both conditions were equal between the two efforts, the values reported were taken from the effort that occurred first, chronologically, based on date and time of the effort.
This study was a multicenter, randomized, double-blind, placebo-controlled, parallel group, outpatient, phase 1B study of Advair Diskus® 250/50 (fluticasone propionate and salmeterol xinafoate, GlaxoSmithKline, Research Triangle Park, N.C.) administered concomitantly with oral placebo or 50 mg tetomilast (2×25 mg tablets) in patients with COPD. All patients underwent a minimum 28-day washout from short-acting inhaled corticosteroids, long-acting bronchodialators, and/or continuous oxygen therapy (>16 hours per day), and a minimum 7-day washout from beta2-agonists and/or oral theophylline. Patients were randomly assigned to one of the two treatment arms (oral tetomilast 50 mg or placebo) prior to dosing on Day 1, and were distributed 1:1 between the two groups according to a computer-generated randomization code provided by the Otsuka Maryland Research Institute (OMRI) Biostatistics Department. Randomization was performed using a central IVRS system and was centralized across study centers.
Subjects received 7 days of treatment with tetomilast 50 mg or placebo oral dose in treatment period 1. During treatment period 2, Days 8 through 35, concomitant inhaled Advair Diskus® 250/50 was added to the treatment regimen.
Subjects were instructed to take their oral study medication (tetomilast 50 mg or placebo) QD with 8 ounces of water immediately after breakfast for all study treatment days. Subjects assigned to the placebo group received two placebo tablets QD. Subjects assigned to the tetomilast group received 2×25 mg tetomilast tablets QD. On study Days 1-7, 14, 21, 28, and 35, subjects consumed their oral study medication (tetomilast 50 mg or placebo) at the clinic in the presence of the study staff.
The inhaled Advair Diskus® 250/50 was self-administered by subjects on all study days between Days 8 and 35, except for Days 14, 21, 28, and 35, when the medication was administered at the clinic in the presence of the study staff. Advair Diskus® 250/50 was administered twice daily (BID). The morning dose coincided with the timing of the oral dose (tetomilast 50 mg or placebo). The evening dose was taken 12 hours later. Dosing times were recorded in subject diaries.
Combivent® (Boehringer Ingleheim Pharmaceuticals, Inc., Ridgefield, Conn.) was provided by the sponsor for short-acting rescue use during the study. Combivent® was withheld for 6 hours prior to any PFTs. Combivent® was supplied as a metered-dose inhaler. Each actuation meters 21 μg of ipratropium bromide and 120 μg of albuterol sulfate from the valve and delivers […] of ipratropium bromide and 103 μg of albuterol sulfate (equivalent to 90 μg albuterol base) from the mouthpiece. […]

[1] = system: guinea pig models of pulmonary disease; settings: cited from earlier work
[2] = system: lipopolysaccharide (LPS)-induced cytokine production (TNF-α, IL-1β, IL-6); settings: tetomilast pretreatment; human whole blood from normal volunteers in vitro; cited from earlier work
[3] = Baseline Day 1 predose, Day 7, before Advair Diskus
[4] = Baseline Day 1 predose, Day 14, both with Advair Diskus 250/50 BID
[5] = Baseline Day 1 predose, Day 21, both with Advair Diskus 250/50 BID
[6] = Baseline Day 1 predose, Day 28, both with Advair Diskus 250/50 BID
[7] = Baseline Day 1 predose, Day 35, both with Advair Diskus 250/50 BID

Q: With CCOc1ccc(-c2nc(-c3cccc(C(=O)O)n3)cs2)cc1OCC [Tetomilast, 2-(3,4-diethoxyphenyl)-4-(2-carboxy-6-pyridyl)thiazole] as the molecule, how does the “effect on inhaled Advair Diskus 250/50 response (FEV1), exploratory repeated measures analysis” value (patients with COPD; Advair Diskus 250/50 with tetomilast versus Advair Diskus 250/50 alone, days 8 through 35) read?
A: The value was “possible potentiation of the effect of inhaled fluticasone propionate plus salmeterol”.

Q: And the “Estimated Treatment Effect, change from baseline in peak FEV1 (tetomilast versus placebo)” value (patients with COPD; Baseline Day 1 predose, Day 1, before Advair Diskus)?
A: Its value is 0.08.

Q: And the “Estimated Treatment Effect, change from baseline in trough FEV1 (tetomilast versus placebo)” value (patients with COPD; Baseline Day 1 predose, Day 2, before Advair Diskus)?
A: Its value is 0.11.

Q: What about the “Estimated Treatment Effect, change from baseline in trough FEV1 (tetomilast versus placebo)” value (patients with COPD; Baseline Day 1 predose, Day 3, before Advair Diskus) of the same molecule?
A: Its value is 0.07.

Q: And the “Estimated Treatment Effect, change from baseline in trough FEV1 (tetomilast versus placebo)” value (patients with COPD; Baseline Day 1 predose, Day 4, before Advair Diskus)?
A: The value was 0.12.

Q: And the “Estimated Treatment Effect, change from baseline in trough FEV1 (tetomilast versus placebo)” value (patients with COPD; Baseline Day 1 predose, Day 5, before Advair Diskus)?
A: The value was 0.13.

Q: What about the “Estimated Treatment Effect, change from baseline in trough FEV1 (tetomilast versus placebo)” value (patients with COPD; Baseline Day 1 predose, Day 6, before Advair Diskus) of the same molecule?
A: Its value is 0.11.

Q: What about the “Estimated Treatment Effect, change from baseline in peak FEV1 (tetomilast versus placebo)” value (patients with COPD; [3]) of the same molecule?
A: The value was 0.23.

Q: And the “Estimated Treatment Effect, change from baseline in trough FEV1 (tetomilast versus placebo)” value (patients with COPD; [3])?
A: The value was 0.13.

Q: What about the “Estimated Treatment Effect, change from baseline in peak FEV1 (tetomilast versus placebo)” value (patients with COPD; [4]) of the same molecule?
A: The value was 0.21.

Q: What about the “Estimated Treatment Effect, change from baseline in trough FEV1 (tetomilast versus placebo)” value (patients with COPD; [4]) of the same molecule?
A: The value was 0.16.

Q: And the “Estimated Treatment Effect, change from baseline in peak FEV1 (tetomilast versus placebo)” value (patients with COPD; [5])?
A: The value was 0.30.

Q: What about the “Estimated Treatment Effect, change from baseline in trough FEV1 (tetomilast versus placebo)” value (patients with COPD; [5]) of the same molecule?
A: The value was 0.18.

Q: What about the “Estimated Treatment Effect, change from baseline in peak FEV1 (tetomilast versus placebo)” value (patients with COPD; [6]) of the same molecule?
A: Its value is 0.28.

Q: What about the “Estimated Treatment Effect, change from baseline in trough FEV1 (tetomilast versus placebo)” value (patients with COPD; [6]) of the same molecule?
A: The value was 0.21.

Q: What about the “Estimated Treatment Effect, change from baseline in peak FEV1 (tetomilast versus placebo)” value (patients with COPD; [7]) of the same molecule?
A: The value was 0.21.

Q: What about the “Estimated Treatment Effect, change from baseline in trough FEV1 (tetomilast versus placebo)” value (patients with COPD; [7]) of the same molecule?
A: Its value is 0.15.

Q: What about the “Estimated Treatment Effect, change from baseline in trough FEV1 (tetomilast versus placebo)” value (patients with COPD; Baseline Day 7 predose, Day 14, both with Advair Diskus 250/50 BID) of the same molecule?
A: The value was 0.02.

Q: What about the “Estimated Treatment Effect, change from baseline in trough FEV1 (tetomilast versus placebo)” value (patients with COPD; Baseline Day 7 predose, Day 21, both with Advair Diskus 250/50 BID) of the same molecule?
A: The value was 0.05.

Q: What about the “Estimated Treatment Effect, change from baseline in trough FEV1 (tetomilast versus placebo)” value (patients with COPD; Baseline Day 7 predose, Day 28, both with Advair Diskus 250/50 BID) of the same molecule?
A: The value was 0.06.

Q: And the “Estimated Treatment Effect, change from baseline in trough FEV1 (tetomilast versus placebo)” value (patients with COPD; Baseline Day 7 predose, Day 35, both with Advair Diskus 250/50 BID)?
A: The value was 0.02.

Q: And the “Estimated Treatment Effect in Baseline Mean trough FEV1, Day 7 predose (tetomilast versus placebo)” value (patients with COPD; Day 7 predose, before Advair Diskus)?
A: Its value is 0.38.

Q: And the “Trough FEV1 compared with placebo” value (patients with COPD; day-1 baseline, all time points through day-7 except day-3, and day-14 through day-35 (with Advair Diskus 250/50))?
A: The value was “statistically significantly improved”.

Q: And the “peak and average FEV1 improvements compared with placebo” value (patients with COPD; days 7, 21 and 28, approached statistical significance at day 14 and day 35)?
A: Its value is “statistically significant”.

Q: What about the “airway resistance and peak expiration flow” value [1] of the same molecule?
A: Its value is “improve”.

Q: What about the “LPS-induced cytokine production (TNF-α, IL-1β, IL-6)” value [2] of the same molecule?
A: Its value is “dose-related suppression”.

— patent US20120010179A1, “Methods of using a thiazole derivative” (priority 2006, published 2012)
